Like-named read-outs stand apart in the source and are kept apart here. Marks after values point to notes of the source that are not given here.

One series addresses PgP (Homo sapiens, UniProt P08183). Particulars: aspalathin 100 µM; 100 µM verapamil (PgP). On the procedure:
(§1) The cell monolayers were equilibrated briefly with transport buffer, pH 6.0 (HBSS with 2-(N-morpholino) ethanesulphonic acid (MES)) on the apical side and pH 7.4 (HBSS with HEPES) on the basolateral side, to remove traces of the culture media. Following this, transport buffers were added for 30 min prior to the addition of treatment (inhibitors were added during this step when required, as well as during the subsequent treatment incubation step). After equilibration, the plates containing transport medium were incubated for 30 min at 37 °C at 5% CO2 in 95% humidified air and the TEER value of the monolayer determined. […] For basolateral-to-apical compartment studies, 2.4 mL of treatment at the same concentrations in HBSS (pH 7.4), was added to the basolateral compartment.
(§2) To assess whether aspalathin was co-transported with glucose, its transport (100 µM) at both high (20.5 mM) and low (5.5 mM) glucose concentrations, mimicking the intestinal lumen glucose concentrations pre- and post-meals, was monitored. This was followed by experiments performed in the presence and absence of SGLT1 (100 µM phloridzin), GLUT2 (100 µM phloretin) and efflux, PgP (100 µM verapamil) inhibitors.
(§3) Samples (1.2 mL) were withdrawn from the basolateral or the apical compartment to measure the concentration of aspalathin uptake and efflux, respectively at 0, 0.5, 1, 1.5, and 2 h under sink conditions (the sample aliquot replaced with equal volume of relevant transport buffer). Sample aliquots (350 µL) were frozen in liquid nitrogen after the addition of ascorbic acid (35 µL of 10% solution) and stored at −65 °C until HPLC analysis. Results were corrected for dilution and expressed as cumulative transport (% of initial dose) as a function of time. Papp (cm/s) for bi-directional transport studies was calculated as previously described. Transport of other major flavonoids in the matrices, i.e., nothofagin, the 3-deoxy analogue of aspalathin and its flavone derivatives, orientin and isoorientin, were also determined.

Another series concerns the target T1, SGLT1 (Homo sapiens, UniProt P13866).
T1 sequence (P13866 1-664): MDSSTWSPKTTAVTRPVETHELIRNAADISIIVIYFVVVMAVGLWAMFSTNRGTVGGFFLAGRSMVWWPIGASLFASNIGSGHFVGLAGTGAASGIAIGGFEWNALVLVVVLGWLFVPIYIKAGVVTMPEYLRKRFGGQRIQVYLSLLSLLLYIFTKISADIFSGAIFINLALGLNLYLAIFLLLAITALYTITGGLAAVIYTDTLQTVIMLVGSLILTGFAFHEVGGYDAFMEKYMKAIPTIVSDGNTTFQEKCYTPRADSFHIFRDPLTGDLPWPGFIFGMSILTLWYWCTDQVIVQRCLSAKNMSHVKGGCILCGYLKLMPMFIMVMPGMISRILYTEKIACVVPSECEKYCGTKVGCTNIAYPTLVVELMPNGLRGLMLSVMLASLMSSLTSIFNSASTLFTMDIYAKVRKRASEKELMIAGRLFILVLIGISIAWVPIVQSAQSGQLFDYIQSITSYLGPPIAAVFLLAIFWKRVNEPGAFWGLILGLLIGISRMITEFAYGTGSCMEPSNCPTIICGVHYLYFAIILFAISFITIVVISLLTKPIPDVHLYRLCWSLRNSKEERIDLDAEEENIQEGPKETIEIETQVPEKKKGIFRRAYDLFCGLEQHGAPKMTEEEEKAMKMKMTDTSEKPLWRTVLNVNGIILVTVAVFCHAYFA
Particulars: aspalathin 100 µM; 100 µM phloridzin (SGLT1). On the procedure:
as §1, §2, §3

A short description of series [1]: Stability of aspalathin (in SB1) in water and HEPES buffer. Format: physicochemical. The note with it: 2 h incubation, aspalathin in extract SB1.
For the next series, the target named is T2, GLUT2 (Homo sapiens, UniProt P11168).
T2 sequence (P11168 1-524): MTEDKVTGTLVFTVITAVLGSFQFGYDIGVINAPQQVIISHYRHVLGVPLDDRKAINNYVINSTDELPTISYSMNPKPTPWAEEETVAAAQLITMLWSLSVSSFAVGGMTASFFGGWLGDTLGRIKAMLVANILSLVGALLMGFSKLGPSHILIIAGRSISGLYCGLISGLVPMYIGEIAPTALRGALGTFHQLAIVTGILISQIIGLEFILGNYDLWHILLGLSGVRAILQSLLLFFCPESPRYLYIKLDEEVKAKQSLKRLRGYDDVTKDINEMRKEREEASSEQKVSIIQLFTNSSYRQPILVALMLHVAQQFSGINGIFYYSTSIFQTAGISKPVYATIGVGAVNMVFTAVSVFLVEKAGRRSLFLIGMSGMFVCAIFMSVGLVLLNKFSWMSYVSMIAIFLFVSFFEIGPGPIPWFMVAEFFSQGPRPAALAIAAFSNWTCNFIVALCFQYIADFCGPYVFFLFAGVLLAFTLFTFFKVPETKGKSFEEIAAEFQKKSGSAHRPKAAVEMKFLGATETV
Particulars: aspalathin 100 µM; 100 µM phloretin (GLUT2).

Series [2] can be described thus: Extended Clearance Classification System (ECCS) classification. Particulars: weak acid, molecular weight higher than 400 g/mol.
In another series the test system is intestinal epithelium. Also on record: method as in earlier work. Particulars: ref 37 Huang et al., cited from earlier work.

Sequence of PgP (P08183 whole entry): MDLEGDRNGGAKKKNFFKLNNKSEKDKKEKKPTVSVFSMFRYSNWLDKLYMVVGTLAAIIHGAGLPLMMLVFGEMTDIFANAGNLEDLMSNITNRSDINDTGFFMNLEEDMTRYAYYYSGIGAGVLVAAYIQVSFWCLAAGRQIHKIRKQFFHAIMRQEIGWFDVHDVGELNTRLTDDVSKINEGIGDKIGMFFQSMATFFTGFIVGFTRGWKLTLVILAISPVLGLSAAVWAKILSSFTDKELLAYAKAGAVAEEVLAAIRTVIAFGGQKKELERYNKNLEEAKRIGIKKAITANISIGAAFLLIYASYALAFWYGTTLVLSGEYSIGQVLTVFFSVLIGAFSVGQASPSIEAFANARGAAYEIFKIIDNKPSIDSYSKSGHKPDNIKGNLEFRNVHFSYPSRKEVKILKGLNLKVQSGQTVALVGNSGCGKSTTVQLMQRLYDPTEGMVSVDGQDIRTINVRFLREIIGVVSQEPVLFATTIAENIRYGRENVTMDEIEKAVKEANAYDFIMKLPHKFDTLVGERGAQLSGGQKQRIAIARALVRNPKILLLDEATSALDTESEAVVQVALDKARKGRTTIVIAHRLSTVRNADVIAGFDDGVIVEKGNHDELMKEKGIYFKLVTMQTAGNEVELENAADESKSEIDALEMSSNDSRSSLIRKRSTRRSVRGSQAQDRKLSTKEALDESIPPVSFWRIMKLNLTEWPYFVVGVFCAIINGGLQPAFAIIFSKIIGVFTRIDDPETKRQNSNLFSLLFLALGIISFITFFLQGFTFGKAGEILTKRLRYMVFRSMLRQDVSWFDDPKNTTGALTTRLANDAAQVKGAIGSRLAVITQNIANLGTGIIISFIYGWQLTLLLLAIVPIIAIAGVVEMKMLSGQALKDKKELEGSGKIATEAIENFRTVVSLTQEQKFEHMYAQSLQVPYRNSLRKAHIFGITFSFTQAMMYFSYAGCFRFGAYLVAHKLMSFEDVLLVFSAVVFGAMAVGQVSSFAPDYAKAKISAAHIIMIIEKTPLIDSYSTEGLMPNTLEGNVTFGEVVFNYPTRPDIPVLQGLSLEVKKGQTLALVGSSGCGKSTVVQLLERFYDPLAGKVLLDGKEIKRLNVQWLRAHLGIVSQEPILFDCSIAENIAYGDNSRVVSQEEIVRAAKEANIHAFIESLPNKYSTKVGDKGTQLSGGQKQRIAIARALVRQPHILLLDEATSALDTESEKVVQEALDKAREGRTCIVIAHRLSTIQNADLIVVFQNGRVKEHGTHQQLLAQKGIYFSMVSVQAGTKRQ

`O=C(CCc1ccc(O)c(O)c1)c1c(O)cc(O)c([C@@H]2O[C@H](CO)[C@@H](O)[C@H](O)[C@H]2O)c1O` [Aspalathin]: on PgP, the “Efflux Ratio + Inhibitor (verapamil)” value was 1.1 ^c, the “Papp a-b + Inhibitor (verapamil)” value is 1.84 ± 0.20 ^c ×10^−6 cm/s and the “Papp b-a + Inhibitor (verapamil)” value is recorded as 1.94 ± 0.68 ^c ×10^−6 cm/s. Further, at SGLT1, the “Efflux Ratio + Inhibitor (phloridzin)” value is 0.99 ^c, the “Papp a-b + Inhibitor (phloridzin)” value was 1.47 ± 1.10 ^c ×10^−6 cm/s and the “Papp b-a + Inhibitor (phloridzin)” value is on record as 1.47 ± 0.9 ^c ×10^−6 cm/s. The same molecule returned a percentage aspalathin degradation in series [1] (HEPES buffer pH 6) of 10%. Further, in series [1] (HEPES buffer pH 7.4), the percentage aspalathin degradation stood at 11%. This molecule returned a percentage aspalathin degradation in series [1] (deionised water) of 1%. Further, on GLUT2, the “Papp a-b + Inhibitor (phloretin)” value is 1.67 ± 0.43 ^c ×10^−6 cm/s and the “Papp b-a + Inhibitor (phloretin)” value is on record as 1.95 ± 1.1 ^c ×10^−6 cm/s. This molecule also came in with an ECCS class in series [2] of 3B. Further, the “transport of aspalathin (Papp)” value in the series on intestinal epithelium (equal concentration of pure aspalathin) is given as 2.48 ± 0.03 × 10^−6 cm/s. The “transport of aspalathin (Papp)” value in the series on intestinal epithelium (from a green rooibos extract solution) is listed as 3.49 ± 1.45 × 10^−6 cm/s.
